Measurements reported in PubChem BioAssay (NCI).
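The compound was tested at five concentrations on cells cultured in 96-well plates, with a 48-hour exposure period. Here, GI50 denotes the concentration required for 50% inhibition of growth. TGI: concentration producing complete growth inhibition.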

Assays:
Assay in all cases: NCI tumour cell line growth inhibition, 48 h
[1] = system: 786-0 renal
[2] = system: A498 renal
[3] = system: A549 NSCLC
[4] = system: ACHN renal
[5] = system: BT-549 breast
[6] = system: CAKI-1 renal
[7] = system: CCRF-CEM leukemia
[8] = system: COLO 205 colon
[9] = system: DU-145 prostate
[10] = system: EKVX NSCLC
[11] = system: HCC-2998 colon
[12] = system: HCT-116 colon
[13] = system: HCT-15 colon
[14] = system: HL-60(TB) leukemia
[15] = system: HOP-62 NSCLC
[16] = system: HOP-92 NSCLC
[17] = system: HS 578T breast
[18] = system: HT29 colon
[19] = system: IGROV1 ovarian
[20] = system: K-562 leukemia
[21] = system: KM12 colon
[22] = system: LOX IMVI melanoma
[23] = system: M14 melanoma
[24] = system: MALME-3M melanoma
[25] = system: MCF7 breast
[26] = system: MDA-MB-231 breast
[27] = system: MDA-MB-435
[28] = system: MDA-MB-468 breast
[29] = system: MOLT-4 leukemia
[30] = system: NCI-H226 lung
[31] = system: NCI-H23 lung
[32] = system: NCI-H460 lung
[33] = system: NCI-H522 lung
[34] = system: NCI/ADR-RES ovarian
[35] = system: OVCAR-3 ovarian
[36] = system: OVCAR-4 ovarian
[37] = system: OVCAR-5 ovarian
[38] = system: OVCAR-8 ovarian
[39] = system: PC-3 prostate
[40] = system: RPMI-8226 leukemia
[41] = system: RXF 393 renal
[42] = system: SF-268 CNS
[43] = system: SF-295 CNS
[44] = system: SF-539 CNS
[45] = system: SK-MEL-2 melanoma
[46] = system: SK-MEL-28 melanoma
[47] = system: SK-MEL-5 melanoma
[48] = system: SK-OV-3 ovarian
[49] = system: SN12C renal
[50] = system: SNB-19 CNS
[51] = system: SNB-75 CNS
[52] = system: SW-620 colon
[53] = system: T-47D breast
[54] = system: TK-10 renal
[55] = system: U251 CNS
[56] = system: UACC-257 melanoma
[57] = system: UACC-62 melanoma
[58] = system: UO-31 renal

For `C=C1CCC2C3(C)COC(c4ccccc4)OC3CCC2(C)C1CC(Sc1ccccc1)C1=CCOC1=O` (stereo unspecified), the GI50 [1] was 14.4 µM, the TGI [1] was 40.5 µM and the GI50 [2] was greater than 100 µM. It also gave a TGI [2] greater than 100 µM, a GI50 [3] of 13.1 µM and a TGI [3] greater than 100 µM. It also gave a GI50 [4] of 12.7 µM, a TGI [4] greater than 100 µM and a GI50 [5] of 2.17 µM. The TGI [5] was 9.12 µM, the GI50 [6] was 18.6 µM and the TGI [6] was greater than 100 µM. It also gave a GI50 [7] of 2.35 µM, a TGI [7] of 8.71 µM and a GI50 [8] of 20.3 µM. For the same molecule, the TGI [8] was 46.8 µM, the GI50 [9] was 18.5 µM and the TGI [9] was greater than 100 µM. It also gave a GI50 [10] of 5.77 µM, a TGI [10] of 95.5 µM and a GI50 [11] of 22.3 µM. For the same molecule, the TGI [11] was greater than 100 µM, the GI50 [12] was 3.52 µM and the TGI [12] was 15.5 µM. The GI50 [13] was 5.12 µM, the TGI [13] was 45 µM and the GI50 [14] was 2.66 µM. The TGI [14] was 8.66 µM, the GI50 [15] was 72.2 µM and the TGI [15] was greater than 100 µM. It also gave a GI50 [16] of 6.54 µM, a TGI [16] of 41.9 µM and a GI50 [17] of 37 µM. It also gave a TGI [17] greater than 100 µM, a GI50 [18] of 5.8 µM and a TGI [18] of 39.7 µM. For the same molecule, the GI50 [19] was 17.3 µM, the TGI [19] was greater than 100 µM and the GI50 [20] was 3.88 µM. The TGI [20] was greater than 100 µM, the GI50 [21] was 11.7 µM and the TGI [21] was greater than 100 µM. It also gave a GI50 [22] of 3.43 µM, a TGI [22] of 14.3 µM and a GI50 [23] of 9.87 µM. It also gave a TGI [23] of 35 µM, a GI50 [24] of 27.9 µM and a TGI [24] greater than 100 µM. For the same molecule, the GI50 [25] was 3.42 µM, the TGI [25] was greater than 100 µM and the GI50 [26] was 13.7 µM. It also gave a TGI [26] of 49 µM, a GI50 [27] of 7.09 µM and a TGI [27] of 35.4 µM. It also gave a GI50 [28] of 4.8 µM, a TGI [28] of 26.4 µM and a GI50 [29] of 2.97 µM. The TGI [29] was greater than 100 µM, the GI50 [30] was 6.32 µM and the TGI [30] was 42.4 µM. The GI50 [31] was 25.7 µM, the TGI [31] was greater than 100 µM and the GI50 [32] was 17.4 µM. The TGI [32] was greater than 100 µM, the GI50 [33] was 10.4 µM and the TGI [33] was 22.8 µM. For the same molecule, the GI50 [34] was 4.78 µM, the TGI [34] was 26.4 µM and the GI50 [35] was 3.66 µM. It also gave a TGI [35] of 13.1 µM, a GI50 [36] of 25.5 µM and a TGI [36] greater than 100 µM. It also gave a GI50 [37] of 25.9 µM, a TGI [37] greater than 100 µM and a GI50 [38] of 4.98 µM. For the same molecule, the TGI [38] was 29 µM, the GI50 [39] was 5.88 µM and the TGI [39] was greater than 100 µM. For the same molecule, the GI50 [40] was 2.59 µM, the TGI [40] was 7.84 µM and the GI50 [41] was 6.61 µM. It also gave a TGI [41] of 43 µM, a GI50 [42] of 48.6 µM and a TGI [42] greater than 100 µM. For the same molecule, the GI50 [43] was 21.3 µM, the TGI [43] was greater than 100 µM and the GI50 [44] was 6.82 µM. The TGI [44] was 20.8 µM, the GI50 [45] was 6.22 µM and the TGI [45] was 21.9 µM. The GI50 [46] was 27.2 µM, the TGI [46] was greater than 100 µM and the GI50 [47] was 10.9 µM. The TGI [47] was 23.4 µM, the GI50 [48] was greater than 100 µM and the TGI [48] was greater than 100 µM. For the same molecule, the GI50 [49] was 10.4 µM, the TGI [49] was greater than 100 µM and the GI50 [50] was 45.1 µM. The TGI [50] was greater than 100 µM, the GI50 [51] was 1.71 µM and the TGI [51] was greater than 100 µM. The GI50 [52] was 3.31 µM, the TGI [52] was greater than 100 µM and the GI50 [53] was 5.2 µM. It also gave a TGI [53] greater than 100 µM, a GI50 [54] of 76.1 µM and a TGI [54] greater than 100 µM. It also gave a GI50 [55] of 9.9 µM, a TGI [55] of 26.5 µM and a GI50 [56] of 33.6 µM. The TGI [56] was greater than 100 µM, the GI50 [57] was 10.3 µM and the TGI [57] was 27.7 µM. For the same molecule, the GI50 [58] was 6.36 µM and the TGI [58] was greater than 100 µM.
